Assay results published in patent publication US20260092061A1, “COMPOUNDS FOR TARGETED PROTEIN DEGRADATION” (Amphista Therapeutics Limited, priority 2022, published 2026).
Read-outs that look alike come from different tables or passages of the source.

Target: T1, BRD9 (Homo sapiens, UniProt Q9H8M2)
T1 sequence (Q9H8M2 1-597): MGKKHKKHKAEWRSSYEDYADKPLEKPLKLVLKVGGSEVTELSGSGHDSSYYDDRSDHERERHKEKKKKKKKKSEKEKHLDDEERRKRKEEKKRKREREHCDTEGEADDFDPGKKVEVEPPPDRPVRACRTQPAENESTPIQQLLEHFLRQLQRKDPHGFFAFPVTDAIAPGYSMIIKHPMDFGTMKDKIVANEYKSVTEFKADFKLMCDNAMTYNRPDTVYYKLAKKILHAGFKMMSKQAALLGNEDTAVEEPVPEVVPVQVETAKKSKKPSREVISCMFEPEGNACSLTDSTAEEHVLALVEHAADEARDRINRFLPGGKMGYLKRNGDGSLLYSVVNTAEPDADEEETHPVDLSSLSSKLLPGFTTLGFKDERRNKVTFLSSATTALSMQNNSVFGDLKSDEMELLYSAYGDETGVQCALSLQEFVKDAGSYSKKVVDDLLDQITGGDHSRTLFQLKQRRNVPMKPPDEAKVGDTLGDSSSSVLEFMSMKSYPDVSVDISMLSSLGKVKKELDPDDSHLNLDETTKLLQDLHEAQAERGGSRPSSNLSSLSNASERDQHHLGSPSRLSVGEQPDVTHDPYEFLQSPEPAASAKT
Assay: Degradation of BRD9 (IF), immunofluorescence in MV4-11 cells, 24 hours (Assay Protocol 2)
Type: cell-based
Parameters: A suspension of MV4-11 cells (ATCC CRL-9591) was prepared; host or cells: MV4-11
Details: BRD9 degradation; for DC50: read-out: DC50
Outline: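 MV4-11 cells treated with compound 24 h at 37° C., then fixed, permeabilised and immunostained for BRD9 (anti-BRD9 E4Q3F, Alexa 647 secondary, Hoechst counterstain). High-content imaging quantified nuclear BRD9 signal; % BRD9 remaining normalised to DMSO and 100 nM CFT-8634 controls.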

[1] = MV4-11, Assay protocol 2, read-out: Dmax

Compound | DC50 (Assay protocol 2) | Dmax [1] | Dmax (Assay protocol 2)
COc1cc(-c2cn(C)c(=O)c(C)c2C)ccc1CN1CCN(Cc2cccc3c2CCN(C(=O)/C(C#N)=C/C(C)(C)C)C3C)C2(CC2)C1 (mixture of isomers) [Compound B147, (E/Z)-2-(5-((7-(2-methoxy-4-(1,4,5-trimethyl-6-oxo-1,6-dihydropyridin-3-yl)benzyl)-4,7-diazaspiro[2.5]octan-4-yl)methyl)-1-methyl-1,2,3,4-tetrahydroisoquinoline-2-carbonyl)-4,4-dimethylpent-2-enenitrile] | 1.25 to 10 nM | > 75% | 
COc1cc(-c2cn(C)c(=O)c(C)c2C)cc(OC)c1CN1CCN(Cc2cccc3c2CCN(C(=O)/C(C#N)=C/C(C)(C)C)C3C)C2CC21 (mixture of isomers) [Compound B148, (E/Z)-2-(5-((5-(2,6-dimethoxy-4-(1,4,5-trimethyl-6-oxo-1,6-dihydropyridin-3-yl)benzyl)-2,5-diazabicyclo[4.1.0]heptan-2-yl)methyl)-1-methyl-1,2,3,4-tetrahydroisoquinoline-2-carbonyl)-4,4-dimethylpent-2-enenitrile] | 1.25 to 10 nM | 40 to 70% | 
COc1cc(-c2cn(C)c(=O)c(C)c2C)cc(OC)c1CN1CCN(Cc2cccc3c2CCN(C(=O)/C(C#N)=C/C2(C)CCC2)C3C)C2(CC2)C1 (mixture of isomers) [Compound B149, (E/Z)-2-(5-((7-(2,6-dimethoxy-4-(1,4,5-trimethyl-6-oxo-1,6-dihydropyridin-3-yl)benzyl)-4,7-diazaspiro[2.5]octan-4-yl)methyl)-1-methyl-1,2,3,4-tetrahydroisoquinoline-2-carbonyl)-3-(1-methylcyclobutyl)acrylonitrile] | < 1.25 nM | > 75% | 
COc1cc(-c2cn(C)c(=O)c(C)c2C)cc(OC)c1CN1CCN(Cc2cccc3c2CCN(C(=O)/C(C#N)=C/C(C)(C)C(F)(F)F)C3C)C2(CC2)C1 (mixture of isomers) [Compound B152, (E/Z)-2-(5-((7-(2,6-dimethoxy-4-(1,4,5-trimethyl-6-oxo-1,6-dihydropyridin-3-yl)benzyl)-4,7-diazaspiro[2.5]octan-4-yl)methyl)-1-methyl-1,2,3,4-tetrahydroisoquinoline-2-carbonyl)-5,5,5-trifluoro-4,4-dimethylpent-2-enenitrile] | 1.25 to 10 nM | > 75% | 
COc1cc(-c2cn(C)c(=O)c(C)c2C)cc(OC)c1CN1CCN(Cc2cccc3c2CCN(C(=O)/C(C#N)=C/C2(C(F)(F)F)CC2)C3C)C2(CC2)C1 (mixture of isomers) [Compound B153, (E/Z)-2-[5-[[7-[[2,6-dimethoxy-4-(1,4,5-trimethyl-6-oxo-3-pyridyl)phenyl]methyl]-4,7-diazaspiro[2.5]octan-4-yl]methyl]-1-methyl-3,4-dihydro-1H-isoquinoline-2-carbonyl]-3-[1-(trifluoromethyl)cyclopropyl]prop-2-enenitrile] | < 1.25 nM | > 75% | 
COc1cc(-c2cn(C)c(=O)c(C)c2C)cc(OC)c1CN1CCN(CCc2cccc3c2CCN(C(=O)/C(C#N)=C/C(C)(C)C)C3C)C2(CC2)C1 (mixture of isomers) [Compound B154] | 10 to 25 nM | 40 to 70% | 
COc1cc(-c2cn(C)c(=O)c(C)c2C)cc(OC)c1CN1CCN(Cc2cccc3c2CCN(C(=O)/C(C#N)=C/C(C)(C)C)C3C)C(=O)C1 (mixture of isomers) [Compound B155, (E/Z)-2-(5-((4-(2,6-dimethoxy-4-(1,4,5-trimethyl-8-oxo-1,6-dihydropyridin-3-yl)benzyl)-2-oxopiperazin-1-yl)methyl)-1-methyl-1,2,3,4-tetrahydroisoquinoline-2-carbonyl)-4,4-dimethylpent-2-enenitrile] | 25 to 1000 nM | 40 to 70% | 
COc1cc(-c2cn(C)c(=O)c(C)c2C)cc(OC)c1CN1CCC(Cc2cccc3c2CCN(C(=O)/C(C#N)=C/C(C)(C)C)C3C)CC1 (mixture of isomers) [Compound B156, (E/Z)-2-(5-((1-(2,6-dimethoxy-4-(1,4,5-trimethyl-6-oxo-1,6-dihydropyridin-3-yl)benzyl)piperidin-4-yl)methyl)-1-methyl-1,2,3,4-tetrahydroisoquinoline-2-carbonyl)-4,4-dimethylpent-2-enenitrile] | 1.25 to 10 nM | 40 to 70% | 
COc1cc(-c2cn(C)c(=O)c3[nH]ncc23)cc(OC)c1CN1CCN(Cc2cccc3c2CCN(C(=O)/C(C#N)=C/C(C)(C)C)C3C)CC12CC2 (mixture of isomers) [Compound B158, (E/Z)-2-(5-((4-(2,6-dimethoxy-4-(6-methyl-7-oxo-6,7-dihydro-1H-pyrazolo[3,4-c]pyridin-4-yl)benzyl)-4,7-diazaspiro[2.5]octan-7-yl)methyl)-1-methyl-1,2,3,4-tetrahydroisoquinoline-2-carbonyl)-4,4-dimethylpent-2-enenitrile] | < 1.25 nM | > 75% | 
COc1cc(-c2cn(C)c(=O)c(C)c2C)cc(OC)c1CN1CCN(Cc2cccc3c2CCN(C(=O)/C(C#N)=C/C(C)(C)C)C3C)CC1(C)C (mixture of isomers) [Compound B159, (E/Z)-2-(5-((4-(2,6-dimethoxy-4-(1,4,5-trimethyl-6-oxo-1,6-dihydropyridin-3-yl)benzyl)-3,3-dimethylpiperazin-1-yl)methyl)-1-methyl-1,2,3,4-tetrahydroisoquinoline-2-carbonyl)-4,4-dimethylpent-2-enenitrile] | < 1.25 nM | 40 to 70% | 
COc1cc(-c2cn(C)c(=O)c(C)c2C)cc(OC)c1CN1CCN(Cc2cccc3c2CCN(C(=O)/C(C#N)=C/C2(C(F)(F)F)CCC2)C3C)C2(CC2)C1 (mixture of isomers) [Compound B160, (E/Z)-2-[5-[[7-[[2,6-dimethoxy-4-(1,4,5-trimethyl-6-oxo-3-pyridyl)phenyl]methyl]-4,7-diazaspiro[2.5]octan-4-yl]methyl]-1-methyl-3,4-dihydro-1H-isoquinoline-2-carbonyl]-3-[1-(trifluoromethyl)cyclobutyl]prop-2-enenitrile] | 1.25 to 10 nM | > 75% | 
COc1cc(-c2cn(C)c(=O)c(C)c2C)cc(OC)c1CN1CCN(Cc2cccc3c2CCN(C(=O)/C(C#N)=C\C24CC(C)(C2)C4)C3C)C2(CC2)C1 (mixture of isomers) [Compound B161, (E/Z)-2-(5-((7-(2,6-dimethoxy-4-(1,4,5-trimethyl-6-oxo-1,6-dihydropyridin-3-yl)benzyl)-4,7-diazaspiro[2.5]octan-4-yl)methyl)-1-methyl-1,2,3,4-tetrahydroisoquinoline-2-carbonyl)-3-(3-methylbicyclo[1.1.1]pentan-1-yl)acrylonitrile] | < 1.25 nM | > 75% | 
COc1cc(-c2cn(C)c(=O)c(C)c2C)cc(OC)c1CN1CCN(Cc2cccc3c2CCN(C(=O)/C(C#N)=C/C2CCOC2)C3C)C2(CC2)C1 (mixture of isomers) [Compound B173, (E/Z)-2-(5-((7-(2,6-dimethoxy-4-(1,4,5-trimethyl-6-oxo-1,6-dihydropyridin-3-yl)benzyl)-4,7-diazaspiro[2.5]octan-4-yl)methyl)-1-methyl-1,2,3,4-tetrahydroisoquinoline-2-carbonyl)-3-(tetrahydrofuran-3-yl)acrylonitril] | < 1.25 nM |  | +++ (+++ = ≥75%)
